The test system of data set [1] is MiaPaCa-2 pancreatic carcinoma xenograft. To be noted: for antitumor efficacy (in words): MiaPaCa-2 xenograft, up to end of experiment (day 43), doses as in Table 1; for Tumor volume (day 43): s.c. MiaPaCa-2 xenografts, i.v. on days 10, 17, 24, dose per Table 1, median initial tumor volume 0.062 cm^3; for toxic death: 7 mice per group, i.v. on days 10, 17, 24, dose per Table 1. The protocol:
In vivo efficacy studies in the MiaPaCa-2 xenograft model were carried out with doxorubicin, the 6-maleimidocaproyl(hydrazone) derivative of doxorubicin (DOXO-EMCH), the albumin-binding prodrug of methotrexate AW054, a combination of the 6-maleimidocaproyl(hydrazone) derivative of doxorubicin (DOXO-EMCH) and the albumin-binding prodrug of methotrexate AW054, doxorubicin, methotrexate and a combination of doxorubicin and methotrexate.
DOXO-EMCH was dissolved in sterile 10 mM sodium phosphate, 5% D-(+)-glucose (pH 5.8) and the respective dose administered intravenously within 30 minutes after dissolution. All doses of DOXO-EMCH and AW054 administered in the studies are stated in doxorubicin and methotrexate equivalents, respectively. Adrimedac® from medac, Germany, was used as the doxorubicin reference (c=2 mg/mL). Methotrexate (Sodium salt from medac) was used as a stock solution (12.5 mg methotrexate/mL in 5% D-Glucose from Braun, sterile). The stock solution AW054 for intravenous administration was 2.0 mg AW054/mL in 5% D-Glucose from Braun, sterile.
For in vivo testing in the MiaPaCa-2 xenograft model, female NMRI: nu/nu mice (Taconic, Denmark) were used. The mice were held in individually ventilaged cages (IVC) under sterile and standardized environmental conditions (25±2° C. room temperature, 50±10% relative humidity, 12 hour light-dark-rhythm). They received autoclaved food and bedding (ssniff, Soest, Germany) and acidified (pH 4.0) drinking water ad libitum. All animal experiments were performed under the auspices of the German Animal Protection Law.
MiaPaCa-2 cells (5×10^6 cells/mouse) were transplanted subcutaneously (s.c.) into the left flank region of each mouse on day zero. Mice were randomly distributed to the experimental groups (7 mice per group). Treatment was initiated at day 10 when the tumors were grown to a size of ˜60 mm^3. Mice were treated on a weekly schedule with 3×6 mg/kg doxorubicin (MTD), 2×125 mg/kg methotrexate (MTD), 3×24 mg/kg DOXO-EMCH (doxorubicin equivalents) (MTD), 3×20 mg/kg AW054 (methotrexate equivalents) (MTD), and a combination of 3×12 mg/kg DOXO-EMCH and 3×10 mg/kg AW054 or a combination of 3×3 mg/kg doxorubicin and 3×62.5 mg/kg methotrexate. All compounds were injected once a week for three weeks (days 10, 17, 24). The injection volume was 0.2 mU20 g body weight. Tumor size was measured twice weekly with a caliper-like instrument in two dimensions. Individual tumor volumes (V) were calculated by the formula V=(length×[width]^2)/2 and related to the values on the first day of treatment (relative tumor volume, RTV). The experiment was ended on day 43. Statistical analysis was performed with the U-test (Mann and Whitney) with p<0.05. The body weight of mice was determined every 3 to 4 days.
Combination therapy with doxorubicin and methotrexate was carried out at in a three weekly schedule (i.v.) at half of their maximum tolerated dose (MTD), i.e. 3×3 mg/kg for doxorubicin and 3×62.5 mg/kg methotrexate. Both DOXO-EMCH and AW054 were administered simultaneously (i.v.) in a three weekly schedule at half of their maximum tolerated dose (MTD), i.e. 3×12 mg/kg for DOXO-EMCH (doxorubicin equivalents) and 3×10 mg/kg (methotrexate equivalents) and at their respective MTDs, i.e. 3×24 mg/kg for DOXO-EMCH (doxorubicin equivalents) and 3×20 mg/kg for AW054 (methotrexate equivalents) (see the following Table 1).

Data set [2] deals with several xenograft and orthotopic tumor models. To be noted: cited from earlier work.
For data set [3], the system named is ovarian carcinoma xenograft model (OVCAR3). The following applies: cited from earlier work.
For data set [4] the following is noted: conjugate formed with cysteine-34 of albumin; cited from earlier work.

Molecules are shown by their SMILES. Marks after values point to notes of the source that are not given here. Numbered stars: 1 amine (or outer) side, 2 acyl side, 3 side chain; on linkers, the order of the positions; unused ones are H or OH. Square brackets hold non-standard residues; d marks the D form. Side chains are listed from the residue outwards. Peptide text beside a SMILES is read from it. * marks the point of attachment. DAMPA = CN(Cc1cnc2nc(N)nc(N)c2n1)c1ccc(C(=O)*)cc1; Hexanoyl(6-maleimido) = O=C1C=CC(=O)N1CCCCCC(=O)*; γGlu = O=C(O)[C@H](CCC(=O)[*:2])N[*:1]

Turning to `COc1cccc2c1C(=O)c1c(O)c3c(c(O)c1C2=O)CC(O)(C(CO)=NNC(=O)CCCCCN1C(=O)C=CC1=O)CC3OC1CC(N)C(O)C(C)O1` (centres unmarked) [DOXO-EMCH, 6-maleimidocaproyl(hydrazone) derivative of doxorubicin], in data set [1], the “antitumor efficacy (in words)” value is “partial remission” and the “Tumor volume (day 43)” value was 0.034 ± 0.064* cm^3. For the same compound, the “efficacy compared to free doxorubicin” value in data set [2] was “superior efficacy over free doxorubicin”.

Regarding `CN(Cc1cnc2nc(N)nc(N)c2n1)c1ccc(C(=O)N[C@@H](CCC(=O)O)C(=O)O)cc1` [Methotrexate, methotrexate], in data set [1], the toxic death was found to be 0, the “antitumor efficacy (in words)” value is “only showed moderate antitumor efficacy” and the “Tumor volume (day 43)” value was 0.396 ± 0.307* cm^3.

As for `C[C@@H](NC(=O)CCCCCN1C(=O)C=CC1=O)C(=O)N[C@@H](Cc1ccccc1)C(=O)N[C@@H](CCCCN)C(=O)N[C@@H](CCCCNC(=O)CC[C@H](NC(=O)c1ccc(N(C)Cc2cnc3nc(N)nc(N)c3n2)cc1)C(=O)O)C(=O)O` [AW054, EMC-D-Ala-Phe-Lys-Lys(γ-MTX)-OH] ({Hexanoyl(6-maleimido)}-[dA]FKK([γGlu-DAMPA])-OH), in data set [1], the toxic death came out at 0, the “antitumor efficacy (in words)” value was “only showed moderate antitumor effects” and the “Tumor volume (day 43)” value is 0.264 ± 0.226* cm^3. Moreover, in data set [3], the “efficacy compared to methotrexate” value was “superior compared to methotrexate”. In addition, in data set [4], the “stability of albumin conjugate in human plasma” value was “stable in human plasma”.

For `COc1cccc2c1C(=O)c1c(O)c3c(c(O)c1C2=O)C[C@@](O)(C(=O)CO)C[C@@H]3O[C@H]1C[C@H](N)[C@H](O)[C@H](C)O1` [Doxorubicin, doxorubicin], in data set [1], the toxic death came to 0, the “antitumor efficacy (in words)” value is on record as “only showed moderate antitumor efficacy” and the “Tumor volume (day 43)” value is listed as 0.190 ± 0.125* cm^3.

The record behind these values is patent publication US9801949B2, “Combinations of albumin-based drug delivery systems” (KTB TUMORFORSCHUNGSGESELLSCHAFT MBH, priority 2012, dated 2017).
